Key:
[1] = Clearance in rat liver microsomes at 1 uM after 15 mins in presence of NADPH by UPLC analysis; type: ADME, microsome; conditions: read-out: CLH
Rattus norvegicus [2] = assay: Induction of sexual behavior in castrated CD(SD)IGS rat assessed as pseudopregnancy rate at 5 mg/kg, po qd for 21 days measured on day 18 to 21 relative to control; type: functional
[3] = AUC (0 to 24 hrs) in Beagle dog at 0.1 mg/kg, iv by LC-MS/MS analysis; type: ADME, organism-based, Canis lupus familiaris; design: time < 24 hr, dose 0.1 mg/kg, route intravenous; conditions: in vivo
Canis familiaris [4] = assay: Toxicity in iv dosed Beagle dog assessed as effect on heart rate administered via single dose; type: organism-based, Canis lupus familiaris; conditions: in vivo
[5] = target: T1, Mineralocorticoid receptor (Homo sapiens, UniProt P08235); assay: Binding affinity to MR (unknown origin)
T1 sequence (P08235 whole entry): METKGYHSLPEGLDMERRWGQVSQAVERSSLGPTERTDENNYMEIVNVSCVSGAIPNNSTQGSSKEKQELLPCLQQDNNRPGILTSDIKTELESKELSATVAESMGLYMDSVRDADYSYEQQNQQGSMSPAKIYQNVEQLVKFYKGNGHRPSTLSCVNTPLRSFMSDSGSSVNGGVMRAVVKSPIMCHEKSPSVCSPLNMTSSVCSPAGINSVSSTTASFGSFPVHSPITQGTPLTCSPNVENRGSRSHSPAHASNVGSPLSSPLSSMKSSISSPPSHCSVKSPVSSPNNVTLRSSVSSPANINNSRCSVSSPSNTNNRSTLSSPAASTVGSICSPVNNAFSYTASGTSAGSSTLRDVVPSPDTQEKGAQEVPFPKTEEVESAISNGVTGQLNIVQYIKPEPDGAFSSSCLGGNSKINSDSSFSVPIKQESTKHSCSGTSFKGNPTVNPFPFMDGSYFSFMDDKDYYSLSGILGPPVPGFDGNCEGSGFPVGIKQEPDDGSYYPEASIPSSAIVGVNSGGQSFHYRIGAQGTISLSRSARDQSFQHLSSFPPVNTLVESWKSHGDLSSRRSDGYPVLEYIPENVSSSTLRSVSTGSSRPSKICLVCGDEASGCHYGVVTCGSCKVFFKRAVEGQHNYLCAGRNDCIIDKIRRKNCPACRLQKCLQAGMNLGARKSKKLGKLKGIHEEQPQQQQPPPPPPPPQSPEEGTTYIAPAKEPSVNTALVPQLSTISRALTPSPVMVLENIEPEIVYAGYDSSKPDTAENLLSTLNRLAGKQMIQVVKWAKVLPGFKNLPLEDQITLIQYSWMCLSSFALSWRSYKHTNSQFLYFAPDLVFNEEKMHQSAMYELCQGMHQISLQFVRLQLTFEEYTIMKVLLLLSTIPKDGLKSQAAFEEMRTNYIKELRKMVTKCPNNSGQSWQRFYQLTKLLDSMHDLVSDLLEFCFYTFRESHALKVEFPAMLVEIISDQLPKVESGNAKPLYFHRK

Rattus norvegicus [6] = assay: Induction of sexual behavior in castrated CD(SD)IGS rat assessed as pseudopregnancy rate at 0.5 mg/kg, po qd for 21 days measured on day 18 to 21 relative to control; type: functional
[7] = Volume of distribution at steady state in Beagle dog at 0.1 mg/kg, iv by LC-MS/MS analysis; type: ADME, organism-based, Canis lupus familiaris; conditions: in vivo, read-out: Vdss
[8] = Clearance in dog liver microsomes at 1 uM after 60 mins in presence of NADPH by UPLC analysis; type: ADME, Canis lupus familiaris, microsome; conditions: read-out: CLH
[9] = MRT in Crl:CD(SD) rat at 0.1 mg/kg, iv by LC-MS/MS analysis; type: ADME, organism-based; conditions: in vivo
[10] = AUC (0 to 24 hrs) in Crl:CD(SD) rat at 0.1 mg/kg, iv by LC-MS/MS analysis; type: ADME, organism-based; design: dose 0.1 mg/kg, time < 24 hr, route intravenous; conditions: in vivo
[11] = Cmax in Crl:CD(SD) rat at 1 mg/kg, po by LC-MS/MS analysis; type: ADME, organism-based; design: dose 1 mg/kg, route oral; conditions: in vivo
Rattus norvegicus [12] = assay: Androgenic activity in castrated CD(SD)IGS rat assessed as prostate weight at 2.5 mg/kg, po bid for 4 days co-treated with testosterone propionate by Harshberger assay relative to control; type: organism-based; conditions: in vivo, 96 h
[13] = MRT in Beagle dog at 0.1 mg/kg, iv by LC-MS/MS analysis; type: ADME, organism-based, Canis lupus familiaris; conditions: in vivo
[14] = AUC (0 to 24 hrs) in cynomolgus monkey at 0.1 mg/kg, iv by LC-MS/MS analysis; type: ADME, organism-based, Macaca fascicularis; design: time < 24 hr, dose 0.1 mg/kg, route intravenous; conditions: in vivo
[15] = Tmax in cynomolgus monkey at 1 mg/kg, po by LC-MS/MS analysis; type: ADME, organism-based, Macaca fascicularis; conditions: in vivo
[16] = Total clearance in Beagle dog at 0.1 mg/kg, iv by LC-MS/MS analysis; type: ADME, organism-based, Canis lupus familiaris; conditions: in vivo
Rattus norvegicus [17] = assay: Toxicity in rat administered via oral gavage; conditions: in vivo
[18] = Oral bioavailability in Beagle dog at 1 mg/kg by LC-MS/MS analysis; type: ADME, organism-based, Canis lupus familiaris; conditions: in vivo
[19] = Oral bioavailability in cynomolgus monkey at 1 mg/kg by LC-MS/MS analysis; type: ADME, organism-based, Macaca fascicularis; conditions: in vivo
Canis familiaris [20] = assay: Toxicity in iv dosed Beagle dog assessed as effect on mean blood pressure administered via single dose; type: organism-based, Canis lupus familiaris; conditions: in vivo
[21] = Tmax in Crl:CD(SD) rat at 1 mg/kg, po by LC-MS/MS analysis; type: ADME, organism-based; conditions: in vivo
Rhesus monkey = assay: Toxicity in monkey assessed as myocardial necrosis administered via oral gavage; design: species or system Macaca mulatta; conditions: in vivo
[22] = Clearance in mouse liver microsomes at 1 uM after 60 mins in presence of NADPH by UPLC analysis; type: ADME, microsome; conditions: read-out: CLH

Structure (SMILES): CC[C@H]1[C@@H](O)CC(=O)N1c1ccc(C#N)c(C(F)(F)F)c1
- microsomal CLint at 1 µM [1]: 20 to 21 µL/min/mg
- Activity (Rattus norvegicus [2]): 86%
- AUC(0-t) at 24 h [3]: 150 ng·h/mL
- Activity (Canis familiaris [4]): Non-Toxic
- IC50 [5]: > 10 µM
- Activity (Rattus norvegicus [6]): 100%
- Vd [7]: 3.3 L/kg
- microsomal CLint at 1 µM [8]: 4 µL/min/mg
- MRT [9]: 2.32 h
- AUC(0-t) at 24 h [10]: 108 ng·h/mL
- Cmax [11]: 218 ng/mL
- Activity (Rattus norvegicus [12]): 106%
- MRT [13]: 4.84 h
- AUC(0-t) at 24 h [14]: 118 ng·h/mL
- Tmax [15]: 1.67 h
- clearance [16]: 11.3 mL/min/kg
- Activity (Rattus norvegicus [17]): Non-Toxic
- bioavailability [18]: 76.6%
- bioavailability [19]: 48.1%
- Activity (Canis familiaris [20]): Non-Toxic
- Tmax [21]: 0.5 h
- Activity (Rhesus monkey): Toxic
- microsomal CLint at 1 µM [22]: 3 µL/min/mg

Source: ChEMBL document CHEMBL4020736, “Synthesis and biological evaluation of novel selective androgen receptor modulators (SARMs) Part III: Discovery of 4-(5-oxopyrrolidine-1-yl)benzonitrile derivative 2f as a clinical candidate” (Bioorg Med Chem, 2017)
